According to patent US10618918B2, “Substituted boronic acids as antimicrobials” (priority 2015, dated 2020):
Read-outs that look alike come from different tables or passages of the source.

What was measured:
[1] = tested on: PAM1154/KPC-2; test: Biapenem potentiation MPC64 in PAM1154/KPC-2 (efflux deficient, lacks MexAB-OprM); format: cell-based, Pseudomonas aeruginosa; details: Pseudomonas aeruginosa; P. aeruginosa PAM1154 expressing KPC-2; biapenem alone
Experimental: (§1) Efflux of BLIs from Pseudomonas aeruginosa by the MexAB-OprM efflux pump was also evaluated. The plasmid expressing the gene encoding KPC-2 was introduced into two strains of P. aeruginosa, PAM1032 and PAM 1154 that overexpressed or lacked MexAB-OprM, respectively. […] Potency of BLIs to potentiate biapenem in these strains was determined.

[2] = tested on: KP1086 OXA-48; test: Biapenem potentiation (MPC@1), strain KP1086 OXA-48; format: cell-based; details: for BPM MPC1 OXA-48 KP1086: minimum BLI concentration inhibiting growth with biapenem 1 μg/mL, tested up to 40 μg/mL
Experimental: (§2) Biapenem was present in the test medium at 1 μg/mL. […] Table 3 summarizes the BLI potency of biapenem potentiation (MPC@1) for two strains overexpressing class A (KPC) and class D (OXA-48) carbapenemases. Biapenem MIC for each strain is also shown.

[3] = tested on: KP1004 KPC-2; test: Biapenem potentiation (MPC@1), strain KP1004 KPC-2; format: cell-based; details: for BPM MPC1 KP1004 KPC-2: minimum BLI concentration inhibiting growth with biapenem 1 μg/mL, tested up to 40 μg/mL
Experimental: as §2

[4] = tested on: PAM1032/KPC-2; test: Biapenem potentiation MPC64 in PAM1032/KPC-2 (efflux proficient, overexpresses MexAB-OprM); format: cell-based, Pseudomonas aeruginosa; details: Pseudomonas aeruginosa; P. aeruginosa PAM1032 expressing KPC-2; biapenem alone
Experimental: as §1

[5] = tested on: KP1009 CTX-M-15; test: Aztreonam potentiation (MPC@4), strain KP1009 CTX-M-15; details: minimum BLI concentration inhibiting growth with aztreonam 4 μg/mL; tested up to 40 μg/mL
[6] = tested on: AB1054 OXA-23; test: Meropenem potentiation (MPC@8), strain AB1054 OXA-23; format: cell-based, Acinetobacter baumannii; details: minimum BLI concentration inhibiting growth with meropenem 8 μg/mL; tested up to 20 μg/mL
[7] = tested on: ECL1002; test: Aztreonam potentiation (MPC@4), strain ECL1002; details: minimum BLI concentration inhibiting growth with aztreonam 4 μg/mL; tested up to 40 μg/mL
[8] = tested on: ec302 TEM-10; test: Aztreonam potentiation (MPC@4), strain ec302 TEM-10; details: minimum BLI concentration inhibiting growth with aztreonam 4 μg/mL; tested up to 40 μg/mL
[9] = tested on: ec308 SHV-5; test: Aztreonam potentiation (MPC@4), strain ec308 SHV-5; details: minimum BLI concentration inhibiting growth with aztreonam 4 μg/mL; tested up to 40 μg/mL
[10] = tested on: KP1005 CTX-M-14; test: Tigemonam potentiation (MPC@4), strain KP1005 CTX-M-14; details: minimum BLI concentration inhibiting growth with tigemonam 4 μg/mL; tested up to 40 μg/mL
[11] = tested on: KP1004 KPC-2; test: Aztreonam potentiation (MPC@4), strain KP1004 KPC-2; details: minimum BLI concentration inhibiting growth with aztreonam 4 μg/mL; tested up to 40 μg/mL
[12] = tested on: EC1010 CMY-6; test: Aztreonam potentiation (MPC@4), strain EC1010 CMY-6; details: minimum BLI concentration inhibiting growth with aztreonam 4 μg/mL; tested up to 40 μg/mL
[13] = tested on: KP1010 SHV-12; test: Aztreonam potentiation (MPC@4), strain KP1010 SHV-12; details: minimum BLI concentration inhibiting growth with aztreonam 4 μg/mL; tested up to 40 μg/mL
[14] = tested on: AB1053 OXA-72; test: Meropenem potentiation (MPC@8), strain AB1053 OXA-72; format: cell-based, Acinetobacter baumannii; details: minimum BLI concentration inhibiting growth with meropenem 8 μg/mL; tested up to 20 μg/mL
[15] = biological target: purified class A, C and D enzymes (β-lactamases) (Klebsiella pneumoniae, UniProt Q6XEC0); test: biochemical; format: biochemical; details: purified OXA-48; nitrocefin (NCF) as reporter substrate
[16] = biological target: T1, purified class A, C and D enzymes (β-lactamases) (UniProt P0AD64, L31Q/G234S/E235K, species not given); test: biochemical; format: biochemical
T1 construct: Ki (SHV-12, NCF), uM; other: purified SHV-12; nitrocefin (NCF) as reporter substrate
T1 sequence (P0AD64 1-286 L31Q/G234S/E235K): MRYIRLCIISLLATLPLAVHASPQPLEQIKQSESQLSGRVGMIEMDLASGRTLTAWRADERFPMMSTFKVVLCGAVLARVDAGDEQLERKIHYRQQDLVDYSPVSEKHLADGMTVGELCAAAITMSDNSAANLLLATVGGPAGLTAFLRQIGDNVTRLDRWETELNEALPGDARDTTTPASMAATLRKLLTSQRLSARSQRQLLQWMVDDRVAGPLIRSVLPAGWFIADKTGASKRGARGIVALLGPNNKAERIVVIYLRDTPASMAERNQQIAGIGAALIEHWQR

[17] = biological target: T2, purified class A, C and D enzymes (β-lactamases) (Pseudomonas aeruginosa, UniProt P24735); test: biochemical; format: biochemical
T2 construct: rows headed: Ki (Pa-AmpC, NCF), uM; other: purified Pa-AmpC; nitrocefin (NCF) as reporter substrate

[18] = biological target: T3, purified class A, C and D enzymes (β-lactamases) (Acinetobacter baumannii, UniProt Q9L4P2); test: biochemical; format: biochemical; details: purified OXA-23; nitrocefin (NCF) as reporter substrate
T3 construct: rows headed: Ki (OXA-23, NCF), uM; other: purified OXA-23; nitrocefin (NCF) as reporter substrate

[19] = biological target: purified class A, C and D enzymes (β-lactamases) (Escherichia coli, UniProt Q9L5C7); test: biochemical; format: biochemical; details: purified CTX-M-14; nitrocefin (NCF) as reporter substrate
[20] = biological target: purified class A, C and D enzymes (β-lactamases) (Klebsiella pneumoniae, UniProt Q9F663); test: biochemical; format: biochemical; details: purified KPC-2; nitrocefin (NCF) as reporter substrate
[21] = biological target: purified class A, C and D enzymes (β-lactamases) (Enterobacter cloacae, UniProt P05364); test: biochemical; format: biochemical
[22] = read-out: Ki (SHV-12, NCF); purified SHV-12; nitrocefin (NCF) as reporter substrate

SMILES	AZT MPC4 CTX-M-15 KP1009 [5]	MPM MPC8 AB1054 OXA-23 [6]	AZT MPC4 ECL1002 [7]	AZT MPC4 TEM-10 ec302 [8]	AZT MPC4 SHV-5 ec308 [9]	TIG MPC4 CTX-M-14 KP1005 [10]	BPM MPC1 OXA-48 KP1086 [2]	AZT MPC4 KPC-2 KP1004 [11]	BPM MPC1 KP1004 KPC-2 [3]	AZT MPC4 CMY-6 EC1010 [12]	AZT MPC4 SHV-12 KP1010 [13]	MPM MPC8 AB1053 OXA-72 [14]	Ki (OXA-48, NCF), uM [15]	Ki [16, 22] [nM]	Ki [17] [nM]	Ki [18] [nM]	Ki (CTX-M-14, NCF), uM [19]	Ki (KPC-2, NCF), uM [20]	Ki (P99, NCF), uM [21]	further results
C[C@@H](O)[C@H]1C(=O)N2C(C(=O)[O-])=C(SC3Cn4cnc[n+]4C3)[C@H](C)[C@H]12 (some centres unmarked) [Biapenem, reference compound]	–	–	–	–	–	–	–	–	–	–	–	–	–	–	–	–	–	–	–	MIC [1]: 32 µg/mL; MIC ([2]; strain KP1086 OXA-48, biapenem alone): 16 µg/mL; MIC ([3]; strain KP1004 KPC-2, biapenem alone): 32 µg/mL; MIC [4]: 32 µg/mL
C#Cc1ccc2c(c1C(=O)[O-])O[B-](O)(O)CC2.[Na+].[Na+] [Compound 18, Disodium; 8-ethynyl-4,4-dihydroxy-5-oxa-4-boranuidabicyclo[4.4.0]deca-1(6),7,9-triene-7-carboxylate]	X (X = MPC@4 ≤ 5 μg/mL)	X (X = MPC@1 ≤ 5 μg/mL)	X (X = MPC@4 ≤ 5 μg/mL)	X (X = MPC@4 ≤ 5 μg/mL)	X (X = MPC@4 ≤ 5 μg/mL)	Z (Z = MPC@4 > 20 μg/mL)	X (X = MPC@1 ≤ 5 μg/mL)	X (X = MPC@4 ≤ 5 μg/mL)	X (X = MPC@1 ≤ 5 μg/mL)	X (X = MPC@4 ≤ 5 μg/mL)	X (X = MPC@4 ≤ 5 μg/mL)	X (X = MPC@1 ≤ 5 μg/mL)	X (X = Ki ≤ 0.1 μM)	< 100	< 100	< 100	X (X = Ki ≤ 0.1 μM)	X (X = Ki ≤ 0.1 μM)	X (key: X = Ki ≤ 0.1 μM; Y = 0.1 μM < Ki ≤ 1 μM; Z = Ki > 1 μM)	–
NCCn1cc(COc2ccc3c(c2C(=O)O)O[B-](O)(O)CC3)nn1 [Compound 23, Disodium; 8-[[1-(2-aminoethyl)triazol-4-yl]methoxy]-4,4-dihydroxy-5-oxa-4-boranuidabicyclo[4.4.0]deca-1(6),7,9-triene-7-carboxylate]	X (X = MPC@4 ≤ 5 μg/mL)	X (X = MPC@1 ≤ 5 μg/mL)	X (X = MPC@4 ≤ 5 μg/mL)	X (X = MPC@4 ≤ 5 μg/mL)	Y (Y = 5 μg/mL < MPC@4 ≤ 20 μg/mL)	Z (Z = MPC@4 > 20 μg/mL)	X (X = MPC@1 ≤ 5 μg/mL)	X (X = MPC@4 ≤ 5 μg/mL)	X (X = MPC@1 ≤ 5 μg/mL)	X (X = MPC@4 ≤ 5 μg/mL)	X (X = MPC@4 ≤ 5 μg/mL)	X (X = MPC@1 ≤ 5 μg/mL)	X (X = Ki ≤ 0.1 μM)	< 100	< 100	< 100	X (X = Ki ≤ 0.1 μM)	X (X = Ki ≤ 0.1 μM)	X (key: X = Ki ≤ 0.1 μM; Y = 0.1 μM < Ki ≤ 1 μM; Z = Ki > 1 μM)	–
C#CCOc1ccc2c(c1C(=O)O)OB(O)CC2 [Compound 25, 2-Hydroxy-7-prop-2-ynoxy-3,4-dihydro-1,2-benzoxaborinine-8-carboxylic acid]	X (X = MPC@4 ≤ 5 μg/mL)	X (X = MPC@1 ≤ 5 μg/mL)	X (X = MPC@4 ≤ 5 μg/mL)	X (X = MPC@4 ≤ 5 μg/mL)	X (X = MPC@4 ≤ 5 μg/mL)	Z (Z = MPC@4 > 20 μg/mL)	X (X = MPC@1 ≤ 5 μg/mL)	X (X = MPC@4 ≤ 5 μg/mL)	X (X = MPC@1 ≤ 5 μg/mL)	X (X = MPC@4 ≤ 5 μg/mL)	X (X = MPC@4 ≤ 5 μg/mL)	X (X = MPC@1 ≤ 5 μg/mL)	X (X = Ki ≤ 0.1 μM)	–	–	< 100	X (X = Ki ≤ 0.1 μM)	X (X = Ki ≤ 0.1 μM)	–	Ki ([16]; purified SHV-12; nitrocefin (NCF) as reporter substrate; read-out: Ki (SHV-12, NCF)): < 100 nM; Ki ([17]; purified Pa-AmpC, nitrocefin (NCF) as reporter substrate, read-out: Ki (Pa-AmpC, NCF)): < 100 nM; Ki (P99, NCF), uM ([21]; purified P99, nitrocefin (NCF) as reporter substrate): X (X = Ki ≤ 0.1 μM)
O=C([O-])c1c(OC(F)F)ccc2c1O[B-](O)(O)CC2.[Na+].[Na+] [Compound 56, Disodium; 8-(difluoromethoxy)-4,4-dihydroxy-5-oxa-4-boranuidabicyclo[4.4.0]deca-1(6),7,9-triene-7-carboxylate]	X (X = MPC@4 ≤ 5 μg/mL)	X (X = MPC@1 ≤ 5 μg/mL)	X (X = MPC@4 ≤ 5 μg/mL)	X (X = MPC@4 ≤ 5 μg/mL)	X (X = MPC@4 ≤ 5 μg/mL)	X (X = MPC@4 ≤ 5 μg/mL)	X (X = MPC@1 ≤ 5 μg/mL)	X (X = MPC@4 ≤ 5 μg/mL)	X (X = MPC@1 ≤ 5 μg/mL)	X (X = MPC@4 ≤ 5 μg/mL)	X (X = MPC@4 ≤ 5 μg/mL)	X (X = MPC@1 ≤ 5 μg/mL)	X (X = Ki ≤ 0.1 μM)	< 100	< 100	< 100	X (X = Ki ≤ 0.1 μM)	X (X = Ki ≤ 0.1 μM)	X (key: X = Ki ≤ 0.1 μM; Y = 0.1 μM < Ki ≤ 1 μM; Z = Ki > 1 μM)	–
